Results as given in publication PMC4852132 (Biochemistry, 2016).
“And” between values parts separate entries of the source, which are not always exact repeats. Equal entries are not always repeated. Where two headings read alike, the source gives them in different places.

Experiments:
[1] = biological target: OGDHc-ec (Escherichia coli, UniProt P0AFG3); experiment: Overall OGDHc-ec activity by formation of NADH; type: biochemical
[2] = biological target: T1, PDHc-ec (Escherichia coli, UniProt P0AFG8); details: cofactor 0.2 mM in assay, no ThDP present for MeOThDP
[3] = biological target: T1, PDHc-ec
[4] = biological target: T2, E1p-h (Homo sapiens, UniProt P08559+P11177); details: MeOThDP bound on E1p-h; CD309 vs pH
T2 sequence (P08559 30-390): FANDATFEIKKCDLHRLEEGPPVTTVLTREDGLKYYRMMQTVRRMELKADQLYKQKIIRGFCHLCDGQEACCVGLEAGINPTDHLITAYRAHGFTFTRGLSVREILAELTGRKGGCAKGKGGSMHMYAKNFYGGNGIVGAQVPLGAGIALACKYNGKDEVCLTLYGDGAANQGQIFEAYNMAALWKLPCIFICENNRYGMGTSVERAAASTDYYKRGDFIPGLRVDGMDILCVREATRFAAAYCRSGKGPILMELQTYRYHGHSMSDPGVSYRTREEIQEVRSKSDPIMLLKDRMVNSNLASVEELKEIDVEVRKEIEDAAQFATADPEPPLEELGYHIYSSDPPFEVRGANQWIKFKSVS
T2 sequence (P11177 31-359): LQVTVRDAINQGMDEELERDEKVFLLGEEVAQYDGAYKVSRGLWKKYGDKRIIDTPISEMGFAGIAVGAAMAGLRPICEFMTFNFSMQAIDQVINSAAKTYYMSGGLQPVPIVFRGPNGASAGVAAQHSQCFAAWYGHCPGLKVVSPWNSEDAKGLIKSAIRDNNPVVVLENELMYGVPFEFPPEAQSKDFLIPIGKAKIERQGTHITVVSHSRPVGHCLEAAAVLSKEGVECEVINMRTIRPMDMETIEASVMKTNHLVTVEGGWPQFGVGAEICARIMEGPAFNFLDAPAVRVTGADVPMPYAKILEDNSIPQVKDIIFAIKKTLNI

[5] = biological target: T3, E1p-ec (Escherichia coli, UniProt P0AFG8)
[6] = biological target: T4, DXPS (Escherichia coli, UniProt P77488)
[7] = biological target: T5, E1o-h (Homo sapiens, UniProt Q02218); experiment: E1o-h specific activity; type: biochemical
T5 sequence (Q02218 41-1023): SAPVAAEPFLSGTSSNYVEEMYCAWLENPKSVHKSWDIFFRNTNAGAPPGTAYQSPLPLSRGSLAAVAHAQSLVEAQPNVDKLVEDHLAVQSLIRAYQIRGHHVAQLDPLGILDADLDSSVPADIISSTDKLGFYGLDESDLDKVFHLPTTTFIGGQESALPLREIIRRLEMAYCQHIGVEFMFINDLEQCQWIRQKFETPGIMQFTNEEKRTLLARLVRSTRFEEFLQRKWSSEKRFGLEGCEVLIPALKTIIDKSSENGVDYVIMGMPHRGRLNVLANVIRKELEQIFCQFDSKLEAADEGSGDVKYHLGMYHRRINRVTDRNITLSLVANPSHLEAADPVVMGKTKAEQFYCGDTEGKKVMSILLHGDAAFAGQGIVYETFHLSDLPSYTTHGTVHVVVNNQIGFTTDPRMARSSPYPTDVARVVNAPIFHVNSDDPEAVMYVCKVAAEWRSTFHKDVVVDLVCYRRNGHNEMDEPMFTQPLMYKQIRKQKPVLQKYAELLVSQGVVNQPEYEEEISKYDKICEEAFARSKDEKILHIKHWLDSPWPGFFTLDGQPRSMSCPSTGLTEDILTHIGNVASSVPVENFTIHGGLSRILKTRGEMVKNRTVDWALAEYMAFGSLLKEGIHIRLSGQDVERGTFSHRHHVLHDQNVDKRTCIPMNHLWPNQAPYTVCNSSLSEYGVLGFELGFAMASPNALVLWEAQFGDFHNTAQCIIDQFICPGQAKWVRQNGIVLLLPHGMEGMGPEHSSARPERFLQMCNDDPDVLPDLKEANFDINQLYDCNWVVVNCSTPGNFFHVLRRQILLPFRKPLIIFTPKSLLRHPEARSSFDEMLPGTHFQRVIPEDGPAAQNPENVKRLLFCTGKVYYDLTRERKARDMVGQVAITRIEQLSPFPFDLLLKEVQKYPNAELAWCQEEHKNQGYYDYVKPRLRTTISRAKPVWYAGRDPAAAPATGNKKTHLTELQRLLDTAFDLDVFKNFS

[8] = biological target: E1o-ec (Escherichia coli, UniProt P0AFG3); experiment: E1o-ec specific activity; type: biochemical
[9] = biological target: T1, PDHc-ec; details: ThDP binding to PDHc-ec; cited from earlier work
[10] = biological target: T2, E1p-h; details: ThDP on E1p-h; cited from earlier work
[11] = biological target: T3, E1p-ec; details: E1p-ec complexed with ThDP; cited from earlier work
[12] = biological target: T3, E1p-ec; experiment: biochemical
[13] = biological target: T4, DXPS; experiment: biochemical
[14] = MeOThDP, PDHc-ec reconstituted from apo-E1p-ec, from lag phase

**Q.** Which results are given for `COc1ncc(C[n+]2csc(CCOP(=O)(O)OP(=O)(O)O)c2C)c(N)n1` [MeOThDP, 2′-methoxythiamin diphosphate]?
**A.** overall OGDHc activity, percent of that with ThDP ([1]; listed as MeOThP): 42% and 69%; overall PDHc-ec activity, percent of that with ThDP [2]: 8.6% and 11% and 5.9%; K1 binding constant ([3]; MeOThDP, PDHc-ec reconstituted from apo-E1p-ec, E2p-ec, E3-ec, from lag phase): 300000 M⁻¹; k2 forward rate constant of binding [3, 14]: 0.0087 s⁻¹; k3 forward rate constant for second cofactor binding [3, 14]: 49 M⁻¹ s⁻¹; k-2 dissociation rate constant [3, 14]: 0.0033 s⁻¹; k-3 reverse rate constant for dissociation of second cofactor [3, 14]: 0.0069 s⁻¹; k3 times lower than that for ThDP ([3]; binding of second MeOThDP vs ThDP): ~ 14 times; Kd ([3]; read-out: Kd,MeOThDP calculated as 1/K1,MeOThDP, from Table 2): 3.45 ± 0.74 µM; pKa for the ([AP] + [IP])/[APH^+] equilibrium [4]: 8.02 ± 0.03; rate constant of reductive acetylation of LDh-ec ([5]; E1p-ec complexed with MeOThDP (0.20 mM), 2 mM pyruvate): 4.4 s⁻¹; rate constant of reductive acetylation, times slower than with ThDP ([5]; E1p-ec with MeOThDP vs ThDP): at least 10 times; percent of quenching of the fluorescence of apo-DXPS [6]: 27%; Kd ([6]; read-out: Kd from quenching of the intrinsic fluorescence of DXPS, apo-DXPS, pH 8.0, 25 °C): 6.24 ± 0.23 µM

**Q.** Which results are given for `Cc1ncc(C[n+]2csc(CCOP(=O)([O-])OP(=O)(O)O)c2C)c(N)n1` [ThDP, thiamin diphosphate]?
**A.** overall OGDHc activity, percent of that with ThDP [1]: 100%; E1o specific activity, percent of that with ThDP ([7]; E1o-h): 100%; E1o specific activity ([7]; E1o-h alone): 0.51 ± 0.02 µmol min^−1 (mg of E1o)^−1 and 0.44 ± 0.08 µmol min^−1 (mg of E1o)^−1; E1o specific activity, percent of that with ThDP ([8]; E1o-ec): 100%; E1o specific activity ([8]; E1o-ec alone): 0.54 ± 0.03 µmol min^−1 (mg of E1o)^−1 and 0.54 ± 0.31 µmol min^−1 (mg of E1o)^−1; overall PDHc-ec activity, percent of that with ThDP [2]: 100%; percent of quenching of the fluorescence of apo-DXPS [6]: 35%; K1 binding constant [9]: 1.2e+06 M⁻¹; k2 forward rate constant of binding [9]: 0.0112 s⁻¹; k3 forward rate constant for second cofactor binding [9]: 710 M⁻¹ s⁻¹; k-2 dissociation rate constant [9]: 0.0038 s⁻¹; k-3 reverse rate constant for dissociation of second cofactor [9]: 0.0076 s⁻¹; pKa for the ([AP] + [IP])/[APH^+] equilibrium [10]: 7.07 ± 0.1; rate constant of reductive acetylation of LDh-ec [11]: 52 s⁻¹; Kd [12]: 7 ± 0.9 µM; Kd [13]: 3.5 ± 0.1 µM
